Assays:
[1] = test system: whole blood cells; conditions: after 1 to 2 seconds; composition of Table 2, surfactant 9-14%
From the text: The blood sample analyzed by CO-Oximeter system 5 may be a whole blood sample that is lysed using one or more of the blood cell lysing compositions described herein. More specifically, in example CO-Oximeter 5, a blood cell lysis composition and a blood sample are introduced into a mixing chamber—e.g., through a mixing valve—in an optical cell 7. Movement of the blood sample and blood cell lysis composition through the mixing chamber under simultaneous actuation implemented by a solenoid causes the blood sample and lysis composition to simultaneously mix and lyse the red blood cells. The resulting mixture constitutes a lysed blood sample that is usable to obtain optical absorbance measurements by the CO-Oximeter with a reduction or elimination of scattering effects caused by red blood cells.
In an example testing procedure, secondary alcohol ethoxylate1 and secondary alcohol ethoxylate2 were included in the example blood cell lysis composition described with respect to Table 2 below at concentrations of 9% to 14% and tested in a CO-Oximetry system of the type described herein.

[2] = Foam height of surfactant in water based solution (Ross-Miles method); assay type: physicochemical
From the text: (§1) Surfactants used for lysing, including the secondary alcohol ethoxylates described herein, may lower surface tension in a liquid blood sample and induce foam formation in the blood sample as air is mixed into the blood sample. Foam is detrimental to optical absorbance measurements because it causes additional light scattering. In some implementations, surfactants for performing cell lysis in CO-Oximetry may reduce or minimize foam formation and/or produce foam that dissipates quickly prior to spectral measurements. […] (Celsius). […] Standard measurements of the foam height may be taken, for example, five minutes after addition of the surfactant to a water based solution. The foam height produced by a secondary alcohol ethoxylate may be measured, for example, using the Ross-Miles method.
(§2) Triton-X100 is a control (or reference) surfactant against which the secondary alcohol ethoxylate surfactants are compared. […] In Table 1 below, […], which is a property of the surfactant that indicates/relates to the effectiveness of the material as a surfactant.

[3] = Surface tension of surfactant; assay type: physicochemical
From the text: as §1, §2

Substance | lysis of whole blood cells [1] | Foam Height—5 minutes (0.1 weight % actives) [2] | Foam height—Initial (0.1 weight % actives) [2] | Surface Tension (1% actives, 25° C.) [3]
Tergitol™ Type 15-S-9 [secondary alcohol ethoxylate2] | about 100% | 43 mm | 124 mm | 30 dynes/cm
Triton X-100 [reference compound] | – | 107 mm | 128 mm | 33 dynes/ dynes/cm

— patent US12228565B2, “Blood cell lysis compositions and uses thereof” (Instrumentation Laboratory Company, priority 2021, dated 2025)
